This is an account of results in patent US20250360130A1, “METHODS OF TREATING INDOLENT SYSTEMIC MASTOCYTOSIS” (Telios Pharma Inc., priority 2024, published 2025).

In assay [1] the test system is basophils. Put plainly: Inhibition of basophil activation (BAT, CD63) in ISM patients. The assay is classed as in vivo, human. How it is done: The BAT was conducted as set forth in Santos (2021) Allergy, 76:2420-2432. Blood from six healthy donors was drawn and Compound 128 was added at various concentrations (10 μM, 3.16 μM, 1 μM, 0.3 μM, 0.1 μM, 0.03 μM, or 0 μM). Blood samples were gently rocked at room temperature for 2 hours, 24 hours, or 48 hours. The BAT assay using the Flow Cast Basophil Activation Kit (Buhlmann Diagnostics; Catalog #B-CCR-STCON) was then conducted following manufacturer instructions by (1) stimulating the blood with anti-FcεR stimulation control in stimulation buffer with IL-3 and staining cells for CCR3 and CD63 for 15 minutes at 37° C., (2) lysing red blood cells and fixing cells with Lysing Reagent at room temperature for 10 minutes, (3) washing cells with Wash Buffer, and (4) acquiring data on a flow cytometer. Activated basophils were defined as CCR3+, low side scatter and CD63+. Percent of activated basophils was calculated as number of activated basophils over the total number of basophils. A four-parameter logistic regression was applied to determine the EC50 and EC90. […]
The BAT assay measuring CD63 used the Flow Cast Basophil Activation Kit method and percent activated basophils were calculated as described in Example 1. Percent inhibition of CD63 activation was calculated as (100−(Sample condition−Unstimulated DMSO control)/(Stimulated DMSO control−Unstimulated DMSO control)×100).

Assay [2] concerns basophils. Description: Anti-IgE induced IL-4 production from basophils in whole blood. The assay is classed as cell-based, human. The settings on record: whole blood from a healthy donor, two hours treatment, anti-IgE six hours. How it is done: Human mast cells lines, ROSA with wildtype KIT and ROSA […] with D816V KIT mutation (ISM-like cells), were licensed from CRNS Innovation and cultured with or without stem cell factor (100 ng/ml), respectively (FIG. 12A). ROSA cells were stimulated with IL-4 (20 ng/ml; R&D Systems) for 18 hours, stained for FcεRIα (Becton Dickinson) for 30 minutes on ice, washed twice with FACS buffer and data was acquired on a flow cytometer. The median fluorescence intensity of FcεRIα was measured. […] Whole blood from a healthy donor was treated with Compound 128 for two hours and the basophils were stimulated with anti-IgE (1 μg/mL; Beckman Coulter) for six hours (FIG. 12B). Plasma was collected and IL-4 levels were measured using the BD CBA human soluble protein master buffer kit and BD CBA human soluble protein flex set for IL-4 (Becton Dickinson). A four-parameter logistic regression analysis was performed on the cytokine levels to determine the EC50 and EC90. […] Therefore, Compound 128 may indirectly effect FcεRI expression by the reduction of IL-4 levels.

The next assay has as its target BTK (Homo sapiens, UniProt Q06187). Put plainly: Antigen-induced BTK phosphorylation in ISM-like mast cells. The assay is classed as cell-based. More on the design: Human mast cells were differentiated from bone marrow CD34+ cells from six healthy donors; endogenous in cells; host or cells: human mast cells differentiated from bone marrow CD34+ cells of healthy donors, cultured with SCF. The settings on record: ISM-like (+SCF) mast cells, two hours treatment prior to stimulation. On the procedure:
Human mast cells were derived from bone marrow CD34+ cells from six healthy donors for up to eight weeks by culturing CD34+ cells in StemSpan SFEM II (Stem Cell Technologies) supplemented with stem cell factor (SCF; 100 ng/mL; R&D System), IL-6 (R&D Systems), IL-3 (R&D Systems) and 1% penicillin/streptomycin (P/S; Gibco) for the first 10 days and in StemSpan SFEM II supplemented with SCF and IL-6 and 1% P/S for the remaining time in culture. […] Supernatant was collected and histamine levels were measured using a Histamine ELISA kit (Eagle Biosciences). […] Percent of activated mast cells was calculated as number of activated mast cells over the total number of mast cells.
Human mast cells were differentiated from bone marrow CD34+ cells from six healthy donors, cultured and sensitized as set forth in Example 4. […] The median fluorescence intensity of phosphorylated BTK was measured. CD63 and histamine levels in these cells were measured and percent activated mast cells were calculated as set forth in Example 4. The percent of stimulated control for pBTK, activated mast cells (CD63+) and histamine levels was calculated. […]

Structures are written as SMILES.

Sequence of BTK (Q06187 whole entry): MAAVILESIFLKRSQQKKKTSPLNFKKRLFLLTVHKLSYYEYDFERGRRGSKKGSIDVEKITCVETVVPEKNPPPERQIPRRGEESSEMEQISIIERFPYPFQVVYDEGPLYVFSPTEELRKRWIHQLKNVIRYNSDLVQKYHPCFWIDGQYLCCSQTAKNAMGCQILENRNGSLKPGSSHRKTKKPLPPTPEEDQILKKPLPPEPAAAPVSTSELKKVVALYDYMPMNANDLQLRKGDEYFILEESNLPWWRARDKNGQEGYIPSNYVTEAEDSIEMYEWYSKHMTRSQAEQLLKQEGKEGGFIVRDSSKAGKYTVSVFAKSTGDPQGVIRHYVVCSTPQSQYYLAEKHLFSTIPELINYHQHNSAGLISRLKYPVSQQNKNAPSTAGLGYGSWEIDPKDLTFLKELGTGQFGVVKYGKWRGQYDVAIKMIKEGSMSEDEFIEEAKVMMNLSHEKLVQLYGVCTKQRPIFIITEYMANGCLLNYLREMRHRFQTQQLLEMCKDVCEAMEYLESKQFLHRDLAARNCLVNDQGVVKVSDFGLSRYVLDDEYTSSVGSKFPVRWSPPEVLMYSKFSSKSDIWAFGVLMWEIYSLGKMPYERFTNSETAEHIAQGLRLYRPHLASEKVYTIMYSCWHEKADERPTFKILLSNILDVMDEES

On to `C=CC(=O)N1CCC(F)(CNc2ncnc(N)c2-c2ccc(Oc3ccccc3)cc2)CC1` [Compound 128, 1-(4-(((6-amino-5-(4-phenoxyphenyl)pyrimidin-4-yl)amino)methyl)-4-fluoropiperidin-1-yl)prop-2-en-1-one], for which the “inhibition of basophil activation” value in the assay on basophils [1] (100 mg or 150 mg BID) is on record as “effective in inhibiting basophil activation”. Besides, the “percent inhibition of CD63 activation of basophils, dose dependence” value with basophils [1] (50, 75, 100 or 150 mg BID versus placebo) is listed as “greater inhibition of basophil activation is achieved in ISM patients with greater dosing”. Further, the “IgE-mediated IL-4 production” value in the assay on basophils [2] was “potently inhibited”. Besides, at BTK, the “IgE-mediated BTK phosphorylation” value is recorded as “potently inhibits”.
